Results on seven compounds are retold here after paper PMC8466781, “Evaluation of Synthetic 2,4-Disubstituted-benzo[g]quinoxaline Derivatives as Potential Anticancer Agents” (Pharmaceuticals, 2021).

Data set [1] concerns breast MCF-7 cancer cell line. The data set is described as follows: MTT cytotoxicity assay against breast MCF-7 cancer cell line. The class given is cell-based. Conditions: Homo sapiens, MCF7, 24 h treatment, mean ± SD, n = 3 experiments, read-out: IC50 (μM) MCF-7, in vitro cytotoxic activity. As for the experimental part: The effect of the prepared benzo[g]quinoxaline derivatives 2–9 on the viability of breast MCF-7 cancer cell line was studied using MTT assay. The cytotoxicity was assessed using Dox as positive reference drug.
Antitumor activity of the newly prepared benzo[g]quinoxaline derivatives 2–9 were carried out against breast MCF-7 cancer cell line using MTT assay method. Cells at density of 1 × 10^4 were seeded in 96-well plate at 37 °C for 48 h under 5% CO2. After incubation, the cells were treated with different concentration of the prepared molecules and incubated for 24 h. MTT dye was added at the end of 24 h of drug treatment and incubated for 4 h at 37 °C. 100 µL of dimethyl sulphoxide was added to each well to dissolve the purple formazan formed. The color intensity of the formazan product, which represents the growth condition of the cells, was quantified using an ELISA plate reader at 570 nm. The experimental conditions were carried out with at least three replicates and the experiments were repeated at least three times.

The next data set has as its system Bax. Kind of data set: ELISA measurement of Bax level in MCF-7 cells. The class given is cell-based. Conditions: MCF-7 cells treated at IC50 (2.89 µM). As for the experimental part: (§1) In order to investigate the molecular pathway involved in apoptosis, compound 3 was screened for its ability to activate pro-apoptotic protein; Bax and downregulate anti-apoptotic protein; Bcl2 [31]. The MCF-7 cancer cell line was treated with compound 3 at its IC50 value (µM) and the level of expression of proteins involved in apoptosis was quantized using ELISA assay. […] Therefore, it can be concluded that compound 3 can induce the intrinsic pathway of apoptosis by activation of Bax and downregulation of Bcl2.
(§2) The levels of the apoptotic marker Bax, Bcl-2, and Fas/Fas-l were assessed using ELISA kit. The procedure of the used kits was completed according to the manufacturer’s instructions. Briefly, cell lysates were prepared from control and MCF-7 cells (2.5 × 10^5) treated with IC50 concentration of compound 3. Then, equal amounts of cell lysates were loaded then probed with specific antibodies. The samples were measured at 450 nm in ROBONEK P2000 ELISA reader. All experiments were performed in duplicate.
(§3) Figure 6 Effect of compound 3 on apoptosis related proteins, Bax, Bcl2, and Fas/Fas-L in MCF-7 cells. […] Data was expressed as mean ± SD (n = 3 experiments) and statistical comparisons were carried out using one-way analysis of variance (ANOVA) followed by Tukey’s multiple comparison test (*** p < 0.001).

The test system of a further data set is Bcl2. The data set is described as follows: ELISA measurement of Bcl2 level in MCF-7 cells. It is filed as cell-based. Conditions: MCF-7 cells treated at IC50 (2.89 µM). How it is done: as §1, §2, §3
(In general: ELISA stands for enzyme-linked immunosorbent assay.)

Data set [2] relates to MCF-7 cells. Kind of data set: Cell cycle analysis by DNA flow cytometry (PI staining). The class given is cell-based. Conditions: MCF-7, compound at IC50 (2.89 µM), 48 h; untreated control 2.41%. As for the experimental part: Compound 3 was tested at its IC50 concentration dose value.
MCF-7 cells (2 × 10^5/well) were harvested and washed twice in PBS. After that, cells were incubated at 37 °C and 5% CO2. The medium was replaced with (DMSO 1% v/v) containing the tested compound, then incubated for 48 h, washed twice in PBS, fixed with 70% ethanol, rinsed again with PBS, and then stained with DNA fluorochrome PI for 15 min at 37 °C. DNA content was analyzed by flow cytometry on a FACS Calibur flow cytometer (Becton and Dickinson, Heidelberg, Germany).
Figure 4 (A) Graphical representation of percentages of cells in pre-G1, G1, G2/M, and S cell cycle phase in MCF-7 cells treated with compound 3 (2.89 µM) for 48 h. (B) Effect of compound 3 (2.89 µM) on cell cycle distribution in MCF-7 cells for 48 h and analyzed by flow cytometry after staining with DNA fluorochrome propidium iodide; most of the compound 3 treated cells were in pre-G1 phase (apoptosis). Data are expressed as the mean ± SD (n = 3 experiments) and statistical comparisons were carried out using one-way analysis of variance (ANOVA) followed by Tukey’s multiple comparison test (*** p < 0.001). ***-Highly significant. […]
Background: Flow cytometry measures light scatter and fluorescence of single cells or particles in a stream.

Data set [3] has as its system MCF-7 cells. The data set is described as follows: Annexin V-FITC/PI apoptosis staining assay (flow cytometry). The class given is cell-based. Conditions: MCF-7, compound at IC50 concentration, 48 h. As for the experimental part:
Apoptosis staining assay was performed to detect the effect of compound 3 on the percentage of early and late apoptosis in the breast MCF-7 cancer cell line. […] Therefore, compound 3 can be considered an apoptosis inducer in the breast MCF-7 cell line.
Apoptosis in MCF-7 cells was investigated using fluorescent Annexin V-FITC/PI detection kit by flow cytometry assay. Briefly, MCF-7 cells (2 × 10^5) after incubation for 12 h. Cells were treated with compound 3 at its IC50 concentration for 48 h, then the cells were harvested and stained with Annexin V-FITC/PI dye for 15 min in the dark at 37 °C. Flow cytometry analyses were performed using FACS Calibur flow cytometer (Becton and Dickinson, Heidelberg, Germany).
Figure 5 (A) Graphical representation of the effect of compound 3 on induction of apoptosis in MCF-7 cell line. (B) Effect of compound 3 on induction of apoptosis in MCF-7 cell line. Data are expressed as the mean ± SD (n = 3 experiments) and statistical comparisons were carried out using one-way analysis of variance (ANOVA) followed by Tukey’s multiple comparison test (** p < 0.01, and *** p < 0.001). […] The Comp 3 values are given in the order upper left, upper right, lower right, with no measure name. / The Control MCF-7 plot prints 1.51%, 0.13% and 0.77%. These are left out because the untreated control is not a substance.

A further data set deals with T1, topoisomerase IIβ (Homo sapiens, UniProt Q02880).
T1 construct: purchased MBS942146
T1 sequence (Q02880 whole entry): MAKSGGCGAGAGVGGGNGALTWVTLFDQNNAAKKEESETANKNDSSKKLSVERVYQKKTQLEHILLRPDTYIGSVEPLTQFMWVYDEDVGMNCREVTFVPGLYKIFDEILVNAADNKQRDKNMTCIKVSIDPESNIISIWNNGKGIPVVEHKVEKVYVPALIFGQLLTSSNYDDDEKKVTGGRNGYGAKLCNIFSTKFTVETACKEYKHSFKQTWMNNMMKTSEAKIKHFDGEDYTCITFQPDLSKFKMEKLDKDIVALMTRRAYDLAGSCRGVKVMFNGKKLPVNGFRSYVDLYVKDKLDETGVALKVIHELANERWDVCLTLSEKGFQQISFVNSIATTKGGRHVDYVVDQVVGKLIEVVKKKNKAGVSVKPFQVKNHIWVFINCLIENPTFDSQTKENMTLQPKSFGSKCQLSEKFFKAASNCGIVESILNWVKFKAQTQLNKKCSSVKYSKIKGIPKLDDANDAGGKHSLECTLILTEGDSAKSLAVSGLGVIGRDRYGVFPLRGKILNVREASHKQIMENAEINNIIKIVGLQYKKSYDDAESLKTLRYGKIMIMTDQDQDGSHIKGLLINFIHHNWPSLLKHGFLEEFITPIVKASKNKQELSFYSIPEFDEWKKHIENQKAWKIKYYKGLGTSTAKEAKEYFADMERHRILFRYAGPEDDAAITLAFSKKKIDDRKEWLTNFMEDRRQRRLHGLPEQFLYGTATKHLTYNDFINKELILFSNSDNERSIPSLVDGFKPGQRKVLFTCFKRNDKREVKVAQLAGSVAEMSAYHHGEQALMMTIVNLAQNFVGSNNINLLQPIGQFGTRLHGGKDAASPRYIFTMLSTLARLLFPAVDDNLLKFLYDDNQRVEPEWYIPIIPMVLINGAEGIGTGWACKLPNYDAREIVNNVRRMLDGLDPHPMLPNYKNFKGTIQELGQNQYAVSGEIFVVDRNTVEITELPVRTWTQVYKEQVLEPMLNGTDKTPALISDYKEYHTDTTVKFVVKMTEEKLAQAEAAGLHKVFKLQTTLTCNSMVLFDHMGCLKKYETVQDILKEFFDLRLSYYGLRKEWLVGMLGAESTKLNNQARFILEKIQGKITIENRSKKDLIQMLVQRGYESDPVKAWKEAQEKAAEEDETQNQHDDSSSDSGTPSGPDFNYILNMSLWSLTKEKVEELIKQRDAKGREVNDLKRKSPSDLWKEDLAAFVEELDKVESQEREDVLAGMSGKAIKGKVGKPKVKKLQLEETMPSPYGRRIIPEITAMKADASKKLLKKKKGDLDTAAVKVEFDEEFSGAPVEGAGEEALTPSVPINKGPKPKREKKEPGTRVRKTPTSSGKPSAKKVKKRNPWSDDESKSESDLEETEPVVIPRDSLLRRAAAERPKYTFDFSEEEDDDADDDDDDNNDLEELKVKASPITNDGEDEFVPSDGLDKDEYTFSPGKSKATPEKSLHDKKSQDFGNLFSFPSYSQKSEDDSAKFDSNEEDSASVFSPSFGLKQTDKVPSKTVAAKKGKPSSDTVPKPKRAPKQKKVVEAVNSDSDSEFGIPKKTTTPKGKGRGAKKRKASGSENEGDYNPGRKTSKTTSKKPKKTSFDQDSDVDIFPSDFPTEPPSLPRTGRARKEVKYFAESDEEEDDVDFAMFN
Kind of data set: Topoisomerase IIβ enzyme inhibition assay (Human DNA topo IIβ ELISA Kit # MBS942146). It is filed as biochemical. How it is done: To obtain a further insight into the mechanism of cell proliferation inhibition activity, benzo[g]quinoxaline molecule 3 was investigated for topoisomerase IIβ (topo IIβ) inhibitory activity using the Human DNA topo IIβ ELISA Kit # MBS942146.
Compound 3 and Dox were evaluated against topoisomerase IIβ for their inhibitory concentration (µM) using four doses concentration according to manufacturer’s instructions.
Figure 3 Graphical representation for comparison of topo IIβ IC50 of compound 3 and Dox; topo II was performed using four doses protocol for compound 3 and Dox, and the concentration that induced 50% maximum inhibition of topo II was determined from sigmoidal dose–response. Data are expressed as the mean ± SD (n = 3 experiments) and statistical comparisons were carried out using one-way analysis of variance (ANOVA) followed by Tukey’s multiple comparison test (** p < 0.01). **-Significant.

For `Clc1ccc(-c2cnc3cc4ccccc4cc3n2)cc1` [Compound 3, 2-(4-Chlorophenyl)benzo[g]quinoxaline], the melting point (in general, the temperature of the solid-liquid transition) fell in the range of 168 to 170 °C. In addition, the IC50 (commonly the concentration that gives 50% inhibition) in data set [1] was 2.89 ± 0.11 µM. Moreover, in the data set on Bax, the “increase of Bax expression compared with untreated control” value was 3.89 fold. Besides, in the data set with Bcl2, the “downregulation of Bcl2 compared with untreated control” value stood at 4.35 fold. For the same compound, the “percentage of cells at the pre-G1 phase” value with MCF-7 cells [2] was found to be 38.24%. Further, the “apoptosis percentage at late stage (upper right quadrant)” value in the data set with MCF-7 cells [3] (untreated control 0.13%) is on record as 21.38%. Moreover, in the data set with MCF-7 cells [3] (untreated control 0.77%), the “apoptosis percentage at the early stage (lower right quadrant)” value came to 1.59%.

Regarding `Nc1c(NCC(=O)c2ccc(Cl)cc2)c(Br)c2ccccc2c1Br` [Compound 8, 2-(3-Amino-1,4-dibromonaphthalen-2-ylamino)-1-(4-chlorophenyl)ethanone], the melting point fell in the range of 225 to 227 °C.

As for `CCOC(=O)C(C#N)=C(c1ccc(O)c(OC)c1)N1C=C(c2ccc(Cl)cc2)Nc2cc3ccccc3cc21` [Compound 5, Ethyl 3-(3-(4-Chlorophenyl)benzo[g]quinoxalin-1(4H)-yl)-2-cyano-3-(4-hydroxy-3-methoxyphenyl)acrylate], the melting point was 146 to 148 °C. The IC50 in data set [1] was 32.1 ± 1.11 µM.

As to `CC(=O)N1CC(c2ccc(Cl)cc2)=Nc2c1c(Br)c1ccccc1c2Br` [Compound 9, 1-(5,10-Dibromo-3-(4-chlorophenyl)benzo[g]quinoxalin-1(2H)-yl)ethanone], the melting point is 205 to 207 °C. Also, the IC50 in data set [1] stood at 8.84 ± 0.36 µM.

`CC(=O)N1C=C(c2ccc(Cl)cc2)Nc2cc3ccccc3cc21` [Compound 4, 1-(3-(4-Chlorophenyl)benzo[g]quinoxalin-1(4H)-yl)ethanone]: the melting point fell in the range of 171 to 173 °C. For the same compound, in data set [1], the IC50 was determined as 16.2 ± 0.58 µM.

For the compound `COc1cccc2c1C(=O)c1c(O)c3c(c(O)c1C2=O)C[C@@](O)(C(=O)CO)C[C@@H]3O[C@H]1C[C@H](N)[C@H](O)[C@H](C)O1` [Dox, Doxorubicin, reference compound], the IC50 stood at 2.01 ± 0.01 µM in data set [1] and 3.31 µM on topoisomerase IIβ.

Consider `Clc1ccc(C2=Nc3cc4ccccc4cc3NC2)cc1` [Compound 2, 3-(4-Chlorophenyl)-1,2-dihydrobenzo[g]quinoxaline], for which the melting point was in the range of 195 to 197 °C. The IC50 in data set [1] worked out at 17.2 ± 0.69 µM.
